The series has as its target T1, SFRP-1 (Homo sapiens, UniProt Q8N474).
T1 sequence (Q8N474 32-314): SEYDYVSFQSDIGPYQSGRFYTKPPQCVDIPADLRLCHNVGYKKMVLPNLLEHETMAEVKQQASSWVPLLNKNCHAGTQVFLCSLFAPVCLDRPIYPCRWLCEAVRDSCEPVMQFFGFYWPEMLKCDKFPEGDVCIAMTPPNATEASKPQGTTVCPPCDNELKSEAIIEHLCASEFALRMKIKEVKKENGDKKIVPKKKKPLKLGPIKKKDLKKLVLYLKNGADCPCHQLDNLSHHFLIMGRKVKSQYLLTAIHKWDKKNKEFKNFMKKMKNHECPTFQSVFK
Kind of series: Cell-based assay for in vitro measurement of SFRP-1/SARP2 antagonist activity (U2OS cells co-transfected with 16x TCF-tk-Luciferase reporter, Wnt and hSFRP-1).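 For all read-outs here: U2OS cells co-transfected with a TCF-tk luciferase reporter, a Wnt vector, hSFRP-1 or empty vector and CMV-βgal, luciferase luminescence read in cell lysates alongside βgal activity.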 The note with it: for fold induction at 15 µM / fold induction at 60 µM: U2OS. Background: A reporter such as luciferase makes a cellular process visible.

Where [1] appears, read: read-out: Fold Induction with SFRP-1, Conc 15 μM, with SFRP-1, fold induction over SFRP-1 control, single dose.
Setting [2] is: read-out: Fold Induction without SFRP-1, Conc 15 μM, without SFRP-1, single dose.
Setting [3] is: Conc 15 μM, with SFRP-1, fold induction over SFRP-1 control, single dose.
Where [4] appears, read: Conc 15 μM, without SFRP-1, single dose.

Like-named read-outs stand apart in the source and are kept apart here.

For `Cc1ccc(S(=O)(=O)c2ccccc2)cc1S(=O)(=O)NCC1CCOCC1` [Example 382, 2-methyl-5-(phenylsulfonyl)-N-(tetrahydro-2H-pyran-4-ylmethyl)benzenesulfonamide], the fold induction at 15 µM is, setting by setting: under setting [1], 2.4; under setting [2], 0.9.

In the case of `Cc1ccc(S(=O)(=O)c2ccc(F)cc2)cc1S(=O)(=O)NCC1CCOCC1` [Example 383, 5-[(4-fluorophenyl)sulfonyl]-2-methyl-N-(tetrahydro-2H-pyran-4-ylmethyl)benzenesulfonamide], the fold induction at 15 µM by setting is: under setting [1], 2.1; under setting [2], 0.9.

`CCc1ccc(S(=O)(=O)c2ccc(F)cc2)cc1S(=O)(=O)NCC1CCOCC1` [Example 384, 2-ethyl-5-[(4-fluorophenyl)sulfonyl]-N-(tetrahydro-2H-pyran-4-ylmethyl)benzenesulfonamide]: the fold induction at 15 µM is 2.6 under setting [1] and 0.8 under setting [2].

Consider `Cc1cc(C)c(S(=O)(=O)c2ccccc2)cc1S(=O)(=O)NCC1CCOCC1` [Example 385, 2,4-dimethyl-5-(phenylsulfonyl)-N-(tetrahydro-2H-pyran-4-ylmethyl)benzenesulfonamide], for which the fold induction at 15 µM stood at 2.7 under setting [1] and 1 under setting [2].

For the molecule `Cc1ccc(S(=O)(=O)c2ccccc2)cc1S(=O)(=O)NCC(O)c1ccccc1` (stereo not shown) [Example 386, N-(2-hydroxy-2-phenylethyl)-2-methyl-5-(phenylsulfonyl)benzenesulfonamide], the fold induction at 15 µM reads like this: under setting [1], 1.8; under setting [2], 1.

With `Cc1ccc(S(=O)(=O)c2ccc(F)cc2)cc1S(=O)(=O)NCC(O)c1ccccc1` (stereo not shown) [Example 387, 5-[(4-fluorophenyl)sulfonyl]-N-(2-hydroxy-2-phenylethyl)-2-methylbenzenesulfonamide], the fold induction at 15 µM under setting [1] was determined as 1.7 and the fold induction at 15 µM under setting [2] was 1.4.

As for `CCc1ccc(S(=O)(=O)c2ccc(F)cc2)cc1S(=O)(=O)NCC(O)c1ccccc1` (stereo not shown) [Example 388, 2-ethyl-5-[(4-fluorophenyl)sulfonyl]-N-(2-hydroxy-2-phenylethyl)benzenesulfonamide], the fold induction at 15 µM under setting [1] was determined as 2.2 and the fold induction at 15 µM under setting [2] is 1.1.

Consider `Cc1cc(C)c(S(=O)(=O)c2ccccc2)cc1S(=O)(=O)NCC(O)c1ccccc1` (stereo not shown) [Example 389, N-(2-hydroxy-2-phenylethyl)-2,4-dimethyl-5-(phenylsulfonyl)benzenesulfonamide], for which the fold induction at 15 µM by setting is: under setting [1], 1.5; under setting [2], 1.1.

Consider `Cc1ccc(S(=O)(=O)c2ccccc2)cc1S(=O)(=O)NC(C)C(O)c1ccccc1` (stereo not drawn) [Example 390, trans-N-(2-hydroxy-1-methyl-2-phenylethyl)-2-methyl-5-(phenylsulfonyl)benzenesulfonamide], for which the “Fold Induction with SFRP-1” value under setting [3] was found to be 2.2 fold. Under setting [4], the “Fold Induction without SFRP-1” value is reported as 1.1 fold.

As to `Cc1ccc(S(=O)(=O)c2ccc(F)cc2)cc1S(=O)(=O)NC(C)C(O)c1ccccc1` (stereo not drawn) [Example 391, 5-[(4-fluorophenyl)sulfonyl]-N-[trans-2-hydroxy-1-methyl-2-phenylethyl]-2-methylbenzenesulfonamide], the “Fold Induction with SFRP-1” value under setting [3] is 1.8 fold. Besides, the “Fold Induction without SFRP-1” value under setting [4] came out at 1.1 fold.

Regarding `Cc1cc(C)c(S(=O)(=O)c2ccccc2)cc1S(=O)(=O)NC(C)C(O)c1ccccc1` (stereo not drawn) [Example 393, N-[(trans)-2-hydroxy-1-methyl-2-phenylethyl]-2,4-dimethyl-5-(phenylsulfonyl)benzenesulfonamide], the “Fold Induction with SFRP-1” value (Conc 7.5 μM, with SFRP-1, fold induction over SFRP-1 control, single dose) is reported as 1.2 fold. For the same molecule, the “Fold Induction without SFRP-1” value (Conc 7.5 μM, without SFRP-1, single dose) came to 1 fold.

On to `CCCNS(=O)(=O)c1cc(S(=O)(=O)c2ccccc2)ccc1C` [Example 394, 2-methyl-5-(phenylsulfonyl)-N-propylbenzenesulfonamide], for which the fold induction at 15 µM is, setting by setting: under setting [1], 1.5; under setting [2], 1.

For the molecule `Cc1ccc(S(=O)(=O)c2ccccc2)cc1S(=O)(=O)NC(C)(C)C` [Example 395, N-(tert-butyl)-2-methyl-5-(phenylsulfonyl)benzenesulfonamide], the fold induction at 15 µM was found to be 1.2 under setting [1] and 1 under setting [2].

As to `Cc1ccc(S(=O)(=O)c2ccccc2)cc1S(=O)(=O)NCC(C)(C)C` [Example 396, N-(2,2-dimethylpropyl)-2-methyl-5-(phenylsulfonyl)benzenesulfonamide], the fold induction at 15 µM is, setting by setting: under setting [1], 1.4; under setting [2], 1.

For `CCC(CC)NS(=O)(=O)c1cc(S(=O)(=O)c2ccccc2)ccc1C` [Example 397, N-(1-ethylpropyl)-2-methyl-5-(phenylsulfonyl)benzenesulfonamide], the fold induction at 15 µM was found to be 1.2 under setting [1] and 1.1 under setting [2].

On to `Cc1ccc(S(=O)(=O)c2ccccc2)cc1S(=O)(=O)NC1CCCCC1` [Example 400, N-cyclohexyl-2-methyl-5-(phenylsulfonyl)benzenesulfonamide], for which the fold induction at 15 µM is 1.8 under setting [1] and 1.2 under setting [2].

In the case of `Cc1ccc(S(=O)(=O)c2ccccc2)cc1S(=O)(=O)NCC(F)(F)F` [Example 401, 2-methyl-5-(phenylsulfonyl)-N-(2,2,2-trifluoroethyl)benzenesulfonamide], the fold induction at 15 µM is 1.6 under setting [1] and 1.1 under setting [2].

Consider `CC(=O)c1ccc(S(=O)(=O)c2ccc(C)c(S(=O)(=O)NCCc3ccccn3)c2)cc1` [Example 403, 5-[(4-acetylphenyl)sulfonyl]-2-methyl-N-(2-pyridin-2-ylethyl)benzenesulfonamide], for which the fold induction at 15 µM under setting [1] is 2.5 and the fold induction at 15 µM under setting [2] turned out to be 1.1.

As to `Cc1ccc(S(=O)(=O)c2ccccc2)cc1S(=O)(=O)NC(C)(C)CO` [Example 404, N-(2-hydroxy-1,1-dimethylethyl)-2-methyl-5-(phenylsulfonyl)benzenesulfonamide], the fold induction at 15 µM is, setting by setting: under setting [1], 1.2; under setting [2], 1.1.

With `Cc1ccc(S(=O)(=O)c2ccc(C(C)(C)O)cc2)cc1S(=O)(=O)NCCc1ccccn1` [Example 405, 5-{[4-(1-hydroxy-1-methylethyl)phenyl]sulfonyl}-2-methyl-N-(2-pyridin-2-ylethyl)benzenesulfonamide], the fold induction at 15 µM stood at 2.1 under setting [1] and 1.1 under setting [2].

`Cc1ccc(S(=O)(=O)c2ccc(C(C)(O)C3CCCCC3)cc2)cc1S(=O)(=O)NCCc1ccccn1` (stereo not shown) [Example 406, 5-{[4-(1-cyclohexyl-1-hydroxyethyl)phenyl]sulfonyl}-2-methyl-N-(2-pyridin-2-ylethyl)benzenesulfonamid]: the fold induction at 60 µM is, setting by setting: (read-out: Fold Induction with SFRP-1, Conc 60 μM, with SFRP-1, fold induction over SFRP-1 control, single dose) 1.2; (read-out: Fold Induction without SFRP-1, Conc 60 μM, without SFRP-1, single dose) 0.9.

Consider `Cc1ccc(S(=O)(=O)c2ccc(C(C)(O)c3ccccc3)cc2)cc1S(=O)(=O)NCCc1ccccn1` (stereo not shown) [Example 407, 5-{[4-(1-hydroxy-1-phenylethyl)phenyl]sulfonyl}-2-methyl-N-(2-pyridin-2-ylethyl)benzenesulfonamide], for which the fold induction at 15 µM runs as follows: under setting [1], 1.2; under setting [2], 0.9.

Regarding `Cc1ccc(S(=O)(=O)c2ccc(C(C)(O)Cc3ccccc3)cc2)cc1S(=O)(=O)NCCc1ccccn1` (stereo not shown) [Example 408, 5-{[4-(1-hydroxy-1-methyl-2-phenylethyl)phenyl]sulfonyl}-2-methyl-N-(2-pyridin-2-ylethyl)benzenesulfonamide], the fold induction at 15 µM is, setting by setting: under setting [1], 1.2; under setting [2], 1.

Regarding `Cc1ccc(S(=O)(=O)c2cccc(C#N)c2)cc1S(=O)(=O)NCCc1ccccn1` [Example 409, 5-[(3-cyanophenyl)sulfonyl]-2-methyl-N-(2-pyridin-2-ylethyl)benzenesulfonamide], the fold induction at 15 µM runs as follows: under setting [1], 2.2; under setting [2], 1.3.

`Cc1ccc(S(=O)(=O)c2cccc3ccccc23)cc1S(=O)(=O)NCCc1ccccn1` [Example 410, 2-methyl-5-(1-naphthylsulfonyl)-N-(2-pyridin-2-ylethyl)benzenesulfonamide]: the fold induction at 15 µM runs as follows: under setting [1], 2.7; under setting [2], 1.3.

In the case of `Cc1ccc(S(=O)(=O)c2ccccc2)cc1S(=O)(=O)NC1CC(C)(C)NC(C)(C)C1` [Example 411, 2-methyl-5-(phenylsulfonyl)-N-(2,2,6,6-tetramethylpiperidin-4-yl)benzenesulfonamide], the fold induction at 15 µM was found to be 1.6 under setting [1] and 1 under setting [2].

Consider `Cc1ccc(S(=O)(=O)c2ccccc2)cc1S(=O)(=O)NC1CCN(Cc2ccccc2)C1` (stereo not shown) [Example 414, N-(1-benzylpyrrolidin-3-yl)-2-methyl-5-(phenylsulfonyl)benzenesulfonamide], for which the fold induction at 15 µM was 2 under setting [1] and 1.3 under setting [2].

`Cc1ccc(S(=O)(=O)c2ccccc2)cc1S(=O)(=O)NC1CCc2ccccc21` (stereo not shown) [Example 415, N-(2,3-dihydro-1H-inden-1-yl)-2-methyl-5-(phenylsulfonyl)benzenesulfonamide]: the fold induction at 15 µM runs as follows: under setting [1], 1.5; under setting [2], 1.2.

Take `Cc1ccc(S(=O)(=O)c2cccc(O)c2)cc1S(=O)(=O)NCCc1ccccn1` [Example 416, 5-[(3-hydroxyphenyl)sulfonyl]-2-methyl-N-(2-pyridin-2-ylethyl)benzenesulfonamide]: the fold induction at 15 µM turned out to be 1.9 under setting [1] and 0.9 under setting [2].

The record behind these values is patent US20060276464A1, “Diarylsulfone sulfonamides and use thereof” (Wyeth, priority 2005, published 2006).
